Source: US20260183350A1, “ANTIBIOTIC-RESISTANT BACTERIA” (priority 2022, published 2026)

Assays:
[1] = tested on: NDM-1 Enterobacter cloacae; assay: Individual metabolite inhibition assay; assay type: cell-based; settings: LB pH 6.5, 16 hours anaerobic
Procedure: (§1) New Delhi Metallo-β-lactamase 1 (NDM-1) Escherichia coli, NDM-1 Klebsiella pneumoniae, and NDM-1 Enterobacter cloacae were isolated from patients with intestinal CRE colonisation from the Imperial College Healthcare NHS Trust via rectal swab (REC ref. 19/LO/0112). The species were assigned by matrix assisted laser desorption ionization-time of flight (MALDI-TOF) mass spectrometry and later confirmed with 16S rRNA gene sequencing. CRE status was determined using X-pert Carba-R PCR detection (Cepheid, Sunnyvale, CA, USA), (Otter, J. A. et al. Detecting carbapenemase-producing Enterobacterales (CPE): an evaluation of an enhanced CPE infection control and screening programme in acute care. J Antimicrob Chemother 75, 2670-2676 (2020)).
(§2) Each metabolite was tested individually in an inhibition assay against each CRE isolate. Each metabolite was tested at three concentrations: the low, average, and high concentrations that were measured in healthy faeces (from Table 1). LB was supplemented with each metabolite (at the three different concentrations) and compared to a no metabolite control. […] Overnight cultures of each CRE isolate were inoculated at 10^3 CFU/ml. Cultures were incubated anaerobically for 16 hours at 37° C. Growth was measured at OD600 after 16 hours of incubation. Growth of the CRE isolate in the presence of each metabolite was compared to the no metabolite control using a one-way ANOVA followed by Dunn's multiple comparison test.

NDM-1 Escherichia coli [2] = assay: Individual metabolite inhibition assay; assay type: cell-based; settings: LB pH 6.5, 16 hours anaerobic
Procedure: as §1, §2

[3] = tested on: NDM-1 Klebsiella pneumoniae; assay: Individual metabolite inhibition assay; assay type: cell-based; settings: LB pH 6.5, 16 hours anaerobic
Procedure: as §1, §2

[4] = tested on: NDM-1 Enterobacter cloacae; assay: Carbon utilisation assay; assay type: cell-based; settings: anaerobic; M9 minimal medium, 0.5% (w/v) carbon source
NDM-1 Escherichia coli [5] = assay: Carbon utilisation assay; assay type: cell-based; settings: anaerobic; M9 minimal medium, 0.5% (w/v) carbon source
[6] = tested on: NDM-1 Klebsiella pneumoniae; assay: Carbon utilisation assay; assay type: cell-based; settings: anaerobic; M9 minimal medium, 0.5% (w/v) carbon source
[7] = tested on: vancomycin-resistant E. faecalis; assay: VRE nutrient utilization protocol: carbon sources; assay type: cell-based, Enterococcus faecalis; settings: aerobic; VRE minimal medium
Procedure: (§3) VRE minimal media consists of potassium phosphate monobasic (4 g/L), potassium phosphate dibasic (14 g/L), sodium citrate (1 g/L), magnesium sulphate (0.2 g/L), ammonium sulphate (2 g/L), adenosine (0.04 g/L), thymine (0.04 g/L), Kao and Michayluk vitamin solution [Sigma, K3129, 50× Stock](5×), glucose (1 g/L) and amino acid solution [Sigma, R7131, RPMI-1640, 50×](25×). If the study was performed under anaerobic conditions, fumarate (5.2 g/L) was added to increase growth of VRE strains. Carbon-free minimal media was prepared by leaving out glucose while nitrogen-free minimal media was prepared without the amino acid solution. Media was filter sterilized with a 0.22 micron filter and used immediately aerobically or degassed overnight if used anaerobically.
(§4) VRE strains were grown on R2A overnight before the cells were suspended in 0.9% saline to an OD of 0.38 (λ=595 nm). A 10% dilution of the cell suspension was prepared using VRE minimal media to achieve a final well OD of […] (λ=595 nm) greater than the sterile media OD. Both carbon and nitrogen source utilization were evaluated by adding the inoculated media and a filter-sterilised nutrient source solution into a well in a 1:1 ration to a final volume of 100 μL in aerobic tests and 200 μL in anaerobic tests. Carbon sources were tested individually and compared to a carbon-free control. To test nitrogen source utilization, a nitrogen source solution was prepared containing L-alanine (2 g/L), L-arginine (2.5 g/L, L-asparagine (0.71 g/L), L-aspartate (0.25 g/L), L-cysteine (0.625 g/L), L-glutamate (0.25 g/L), L-Glycine (0.125 g/L), L-histidine (0.1875 g/L), L-isoleucine (0.625 g/L), L-leucine (0.625 g/L), L-lysine HCl (0.5 g/L), L-methionine (0.1875 g/L), L-phenylalanine (0.1875 g/L), L-proline (0.25 g/L), L-serine (0.375 g/L), L-threonine (0.25 g/L), L-tryptophan (0.0625 g/L), L-tyrosine (0.29 g/L), L-valine (0.25 g/L), N-acetylglucosamine (2 g/L), and uracil (2.5 g/L). To test the strains' ability to utilize individual nitrogen sources, separate solutions were prepared eliminating one nitrogen source each. The change in growth compared to the complete nitrogen source solution control was used to determine nitrogen utilization. All carbon and nitrogen sources were tested in a technical triplicate for each biological replicate. Aerobic plates were incubated with a plate seal while anaerobic plates were not. The aerobic plate reader was set to read the plate (λ=595 nm, 37° C., 22 flashes per well, orbital shaking of 100 rpm for 15 s prior to each read) every 15 minutes for 24 hours. The anaerobic plate reader read the plate (λ=595 nm, 37° C., stationary) every 15 minutes for 24 hours.

[8] = tested on: vancomycin-resistant E. faecium; assay: VRE nutrient utilization protocol: carbon sources; assay type: cell-based, Enterococcus faecium; settings: aerobic; VRE minimal medium
Procedure: as §3, §4

[9] = tested on: NDM-1 Enterobacter cloacae; assay: Nitrogen utilisation assay; assay type: cell-based; settings: anaerobic; M9 minimal medium with glucose, 0.1% (w/v) nitrogen source
Procedure: as §1
(§5) Growth of CRE isolates on sole carbon or nitrogen sources was tested by inoculating each CRE isolate into a minimal medium supplemented with the nutrient of interest. First, CRE isolates were passaged from frozen glycerol stocks on Reasoner's 2A agar (R2A) plates. Cells were then suspended in M9 minimal media to a turbidity of 42% using a Turbidimeter (Biolog Inc.), then diluted a further 1 in 6 to inoculate the carbon or nitrogen utilisation assays. M9 minimal media contained the following (at final concentrations): 22 mM KH2PO4, 42 mM Na2HPO4, 9 mM NaCl, 0.49 mM MgSO4·7H2O, 0.09 mM CaCl2), 0.011 mM FeSO4·7H2O. For the carbon assays the M9 minimal medium was also supplemented with 0.1% (w/v) NH4Cl (as the nitrogen source) and the carbon sources were individually tested at 0.5% (w/v) concentration. For the nitrogen assays the M9 minimal medium was also supplemented with 0.5% (w/v) glucose (as the carbon source) and the nitrogen sources were individually tested at 0.1% (w/v) concentration. Cultures were incubated anaerobically and aerobically in a plate reader and OD600 readings were collected every 15 minutes for 24 hours.
(§6) Growth curves were analysed in Python (v3.6.5) using the AMiGA software (Midani, F. S., Collins, J. & Britton, R. A. AMiGA: Software for Automated Analysis of Microbial Growth Assays. mSystems 6, e0050821 (2021)). Growth of each isolate was measured with 6 wells from 2-3 independent experiments. Growth curves were normalised to the no substrate control using the subtraction method. AMiGA performed Gaussian Process regression to test differential growth between the substrate and the no substrate control. The functional difference in the OD (and its credible interval) was also computed between the substrate and the no substrate control.

NDM-1 Escherichia coli [10] = assay: Nitrogen utilisation assay; assay type: cell-based; settings: anaerobic; M9 minimal medium with glucose, 0.1% (w/v) nitrogen source
Procedure: as §1, §5, §6

[11] = tested on: NDM-1 Klebsiella pneumoniae; assay: Nitrogen utilisation assay; assay type: cell-based; settings: M9 minimal medium with glucose, 0.1% (w/v) nitrogen source
Procedure: as §1, §5, §6

[12] = at average and high concentrations (Table 1)
[13] = at low, average, and high concentrations (Table 1)

In the case of `CCO` [ethanol], the “E. cloacae growth (OD600) with individual metabolite” value (from here on “E. cloacae growth (OD600)”) ([1]; at the high concentration (Table 1)) is reported as “inhibited” and the “E. coli growth (OD600) with individual metabolite” value (“E. coli growth (OD600)” below) (NDM-1 Escherichia coli [2]; [12]) is reported as “inhibited”.
With `CCCCC(=O)O` [valerate] the “E. cloacae growth (OD600)” value [1, 13] was “inhibited”, the “E. coli growth (OD600)” value (NDM-1 Escherichia coli [2]; [12]) was “inhibited” and the “K. pneumoniae growth (OD600) with individual metabolite” value (“K. pneumoniae growth (OD600)” below) [3, 12] was “inhibited”.
With `CCC(=O)O` [propionate] the “E. cloacae growth (OD600)” value [1, 12] was “inhibited”, the “E. coli growth (OD600)” value (NDM-1 Escherichia coli [2]; [12]) was “inhibited” and the “K. pneumoniae growth (OD600)” value [3, 12] was “inhibited”.
`CCCC(=O)O` [butyrate] was tested, and the “E. cloacae growth (OD600)” value [1, 13] was “inhibited”, the “E. coli growth (OD600)” value (NDM-1 Escherichia coli [2]; at high concentrations (Table 1)) was “inhibited” and the “K. pneumoniae growth (OD600)” value [3, 13] was “inhibited”.
`CC(C)C(=O)O` [isobutyrate] was tested, and the “E. cloacae growth (OD600)” value [1, 12] was “inhibited” and the “K. pneumoniae growth (OD600)” value [3, 12] was “inhibited”.
`O=C(CO)[C@@H](O)[C@H](O)[C@H](O)CO` [fructose, D-fructose] was tested, and the “Use as sole carbon source to support E. cloacae growth” value [4] was “could use”, the “Use as sole carbon source to support E. coli growth” value (NDM-1 Escherichia coli [5]) was “could use” and the “Use as sole carbon source to support K. pneumoniae growth” value [6] was “could use”. The “Use as sole carbon source to support E. faecalis growth” value [7] was “could use” and the “Use as sole carbon source to support E. faecium growth” value [8] was “could use”.
With `CC(=O)O` [acetate] the “E. cloacae growth (OD600)” value [1, 12] was “inhibited”, the “E. coli growth (OD600)” value (NDM-1 Escherichia coli [2]; [13]) was “inhibited” and the “K. pneumoniae growth (OD600)” value [3, 12] was “inhibited”.
With `CC(=O)N[C@H]1C(O)O[C@H](CO)[C@@H](O)[C@@H]1O` (stereo partly drawn) [N-acetylglucosamine] the “Use as sole carbon source to support E. cloacae growth” value [4] was “could use”, the “Use as sole carbon source to support E. coli growth” value (NDM-1 Escherichia coli [5]) was “could use” and the “Use as sole carbon source to support K. pneumoniae growth” value [6] was “could use”. For the same molecule, the “Use as sole nitrogen source to support E. cloacae growth” value [9] was “could use”, the “Use as sole nitrogen source to support E. coli growth” value (NDM-1 Escherichia coli [10]) was “could use” and the “Use as sole nitrogen source to support K. pneumoniae growth” value ([11]; aerobic) was “not able to use”. The “Use as sole nitrogen source to support K. pneumoniae growth” value ([11]; anaerobic) was “could use”, the “Use as sole carbon source to support E. faecalis growth” value [7] was “could use” and the “Use as sole carbon source to support E. faecium growth” value [8] was “could use”.
